Test results taken from patent US6034120A, “Insect antifeedant for agriculture” (Morita Kaguku Kogyo Co., Ltd., priority 1997, dated 2000).
Entries after “also recorded” stand apart in the source; their conditions may differ.

Legend:
[1] = test system: Spodoptera litura FABRICIUS; assay: antifeeding effect by the leaf disk method (antifeedant index); assay type: in vivo, Spodoptera litura FABRICIUS larvae, third or fourth instar; set-up: key to Antifeedant index (AFI): AFI = 100×T/(T+C); 50 = same as control, ≤30 = antifeeding; conditions: for Antifeedant index (AFI): 30 or less = antifeeding activity
Protocol: A test for an antifeeding effect on insects was conducted by the leaf disk method. After wiping off the surface of a leaf of Ipomoea batatas with acetone in order to remove extraneous matter on the leaf, a disk having a diameter of 2 cm was cut out with a cork borer, avoiding the veins of the leaf. An acetone solution containing the predetermined amount of samples was applied to the disk, which was sufficiently air-dried. As a control, the same amount of acetone solution was used, and applied to the leaf disk in the same manner as in the sample. Two pieces each of the sample and the control were placed crosswise in a petri dish, and 15 larvae of Spodoptera litura FABRICIUS were set in the petri dish to put on the lid. The Spodoptera litura FABRICIUS used was the third or fourth instar. This is because the younger the larvae, the greater the effect they receive due to allelochemical. The first or second instar larvae prefer to eat a tender portion of the leaf because they cannot eat hard veins or fiber of the leaf. On the other hand, the fifth or sixth instar larvae move the leafdisk because they are well-built. Further, the antifeeding effect due to allelochemical is lowered because they eat any portion of the leaf. Therefore, it is better not to use the fifth or sixth instar larvae.
The petri dish was allowed to stand in a thermostatic chamber at 25 to 27° C. under light. Two to 5 hours later, 4 pieces of the leaf were taken out to convert them into black and white pictures with a photocopier. Using a scanner, the disk area was digitized, and then the disk area was expressed numerically at the pixel unit on a Mackintosh computer using a free soft NIH image.
The method of calculating an antifeedant index (AFI) is as follows. First, a standard area of an intact leaf is calculated. The ratio of the area of the leaf consumed by the larvae to the standard area of the leaf was calculated.
Antifeedant index=100×T/(T+C)
T: Total percentage of treated disk consumed
C: Total percentage of control disk consumed
If this index is 30 or less, the tested leaf has antifeeding activity. […] When the consumed area of the sample and that of the control is the same, the antifeedant index indicates 50.
Concerning scabequinone, remirol, cyperaquinone and methylremirol, the AFI and FR were calculated according to the method for testing an antifeeding effect.

[2] = test system: Plutella maculipennis CURTIS; assay: test for an insecticidal effect (contact application); assay type: in vivo, Plutella maculipennis CURTIS larvae, third instar; conditions: for LD50: acetone solution applied to third instar larvae, 24 hours, probit method; for insecticidal effect / LD50 comparison (in words): versus scabequinone
Protocol: In order to test the insecticidal effect of remirol, methylremirol and scabequinone, acetone was added to each sample and the resulting acetone solution was applied to the third instar larvae of Plutella maculipennis CURTIS. Thereafter, Kaiwaredaikon (Raphanus sativus LINN, C.V. shijunichi) was fed to them as a feed and the number of survived larvae after 24 hours was counted. LD50 (lethal dose 50) was calculated by the probit method.

plants = conditions: background statement; cited from earlier work
[3] = test system: Tyrophagus putrescentiae SCHRANK; assay: dry film method in test tube, repelling of Tyrophagus putrescentiae; assay type: in vivo; conditions: 1 mg, 25° C., 1 day
Protocol: To 1 mg of cyperaquinone was added acetone and the resulting solution was charged in a test tube (a diameter of 1 cm). Thereafter, the solution was treated by the dry film method. (The method is as follows: a solution was charged at the bottom of a test tube. After applying the solution to the wall of the test tube, the solvent was removed to leave a sample on the wall of the test tube.) Fifty Tyrophagus putrescentiae SCHRANK were set in the test tube. After growing them at 25° C. for 1 day, the confirmation was conducted with a stereomicroscope.

[4] = 1 mg/leaf, 50 = no difference from control

| Compound | FR (consumed ratio of treated leaves) ([1]; 0.1 mg/leaf) | FR (consumed ratio of treated leaves) ([1]; 0.25 mg/leaf) | Antifeedant index (AFI) ([1]; 0.25 mg/leaf) | FR (consumed ratio of treated leaves) ([1]; 1 mg/leaf) | Antifeedant index (AFI) [1, 4] | LD50 [2] [mg] | insecticidal effect / LD50 comparison (in words) [2] | Antifeedant index (AFI) ([1]; 0.1 mg/leaf) | anti-breeding effect on the plants (plants) | mortality (in words) [3] | repelling effect (in words) [3] | antifeeding effect (in words) ([1]; leaf disk method) |
| --- | --- | --- | --- | --- | --- | --- | --- | --- | --- | --- | --- | --- |
| C=C(C)C1Cc2c(cc(OC)c(C(C)=O)c2O)O1 (stereo not drawn) [remirol] | 11.33 | 10.31 | 19.02 | 3.84 | 8.57 | 0.125 | superior to scabequinone in the insecticidal effect |  |  |  |  |  |
| C=C(C)C1Cc2c(OC)cc(OC)cc2O1 (stereo not drawn) [2-isopopenyl-4,6-methoxy-coumaran, 2-isopropenyl-4,6-methoxycoumaran] |  |  |  |  | 26.1 |  |  |  |  |  |  |  |
| O=c1c(O)c(-c2ccc(O)c(O)c2)oc2cc(O)cc(O)c12 [quercetin, reference compound] | 15.96 | 13.07 | 25.08 | 0.66 | 2.07 |  |  | 25.04 |  |  |  |  |
| O=C1C=CC(=O)c2c(O)cccc21 [juglone, reference compound] | 0 | 0 | 0 | 0 | 0 |  |  | 0 | strong anti-breedingeffect on the plants |  |  |  |
| C=C(C)C1Cc2c(cc(OC)c(C(C)=O)c2OC)O1 (stereo not drawn) [methylremirol] |  |  |  |  | 0 | 1.0 | superior to scabequinone in the insecticidal effect |  |  |  |  |  |
| C=C(C)c1cc2c(o1)C(=O)c1occ(C)c1C2=O [cyperaquinone] | 16.18 | 13.92 | 26.03 | 9.98 | 20.98 |  |  |  |  | Some of the Tyrophagus putrescentiae SCHRANK were dead | had a repelling effect on Tyrophagus putrescentiae SCHRANK |  |
| Cc1coc2c1C(=O)C1=C(OCC(C(C)C)C1)C2=O (stereo not drawn) [scabequinone] | 1.61 | 0.47 | 2.16 |  | 0 | 1.371 |  | 4.22 |  |  |  | did quite well in the antifeeding effect; also recorded: by far superior to another commercially available product quercetin |
| C=C(C)C1Cc2c(cc(OC)c(C(C)=O)c2OC)O1 (racemic) [racemic methylremirol] |  |  |  |  | 44.3 |  |  |  |  |  |  |  |
